What was measured:
[1] = literature reports; cited from earlier work
human fibroblasts = assay: human fibroblast cell proliferation; format: cell-based; details: for effect on the inhibitory effect of 1-alpha,25-dihydroxyvitamin D3 on cell generation: added to the 1-alpha,25-dihydroxy compound
Description: FIG. 4 is a graph comparing the effects of ethanol ( ), ethanol plus 1-alpha,25-dihydroxyvitamin D3 ( ), and 1-beta-thio-25-hydroxyvitamin D3 and 1-alpha,25-dihydroxyvitamin D3 ( ) on human fibroblast cell proliferation.
To confirm this, the effects of various compounds on cell proliferation rates were studied, using human fibroblasts to evaluate activity. Human fibroblasts were prepared as described by Clemens, J. Clin. Endocrinol. Met., 56: 197 (1983). In the study, 2.5×10^5 cells, in quadruplicate, were exposed to (a) 95% ethanol; (b) ethanol plus 1-alpha-25-dihydroxyvitamin D3 ( ); or (c) 1-beta-thio-25-hydroxyvitamin D3 plus 1-alpha, 25-dihydroxyvitamin D3 ( ). As may be seen from FIG. 4, the 1-alpha-25-dihydroxy-vitamin D3 inhibited cell generation by about 30% ( ). […] Further, the 1-thio compound alone had no effect on cell generation time (data not shown).

[2] = target: T1, chick cytosolic receptor (1,25-dihydroxyvitamin receptor site) (Gallus gallus, UniProt O42392); assay: competition with 3H-1,25-dihydroxyvitamin D3 for receptor site (procedure of Eisman et al.); format: binding
T1 sequence (O42392 1-451): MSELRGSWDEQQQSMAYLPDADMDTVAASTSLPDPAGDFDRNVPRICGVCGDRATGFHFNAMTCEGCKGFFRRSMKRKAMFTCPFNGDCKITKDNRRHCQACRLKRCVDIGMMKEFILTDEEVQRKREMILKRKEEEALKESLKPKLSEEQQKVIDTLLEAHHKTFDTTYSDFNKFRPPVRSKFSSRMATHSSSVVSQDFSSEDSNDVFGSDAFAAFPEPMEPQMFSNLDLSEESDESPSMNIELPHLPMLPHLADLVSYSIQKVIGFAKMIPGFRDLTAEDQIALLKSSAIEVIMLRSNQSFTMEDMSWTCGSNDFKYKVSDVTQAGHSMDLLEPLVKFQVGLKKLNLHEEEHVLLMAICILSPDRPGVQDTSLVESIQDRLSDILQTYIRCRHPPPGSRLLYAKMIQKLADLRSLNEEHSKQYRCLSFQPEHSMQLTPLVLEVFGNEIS
Excerpt: FIG. 3 is a graph comparing the binding characteristics of 1-alpha,25-dihydroxyvitamin D3 ( ) and 1-beta-thio-25-hydroxyvitamin D3 (Δ) using chick cytosolic receptor.
Thus, the 1-beta-thio-25-hydroxyvitamin D3 can be used as a biologically active analogue of the natural compound.

## C=C1/C(=C\C=C2/CCC[C@]3(C)[C@@H]([C@H](C)CCCC(C)(C)F)CC[C@@H]23)C[C@@H](O)C[C@@H]1F [1-alpha-25-difluoro vitamin D3]
[1]
  biological activity: biologically inert

## C=C1/C(=C\C=C2/CCC[C@]3(C)[C@@H]([C@H](C)CCCC(C)(C)O)CC[C@@H]23)C[C@@H](O)C[C@@H]1O [1-alpha-25-dihydroxy-vitamin D3, 1-alpha,25-dihydroxyvitamin D3, reference compound]
Human fibroblasts; human fibroblasts, 2.5×10^5 cells, FIG. 4
  inhibition of cell generation: about 30%

## C=C1/C(=C\C=C2/CCC[C@]3(C)[C@@H]([C@H](C)CCCC(C)(C)O)CC[C@@H]23)C[C@@H](O)C[C@H]1S [1-beta-thio-25-hydroxyvitamin D3, 1-beta-thio-25-hydroxy vitamin D3]
[2]; FIG. 3
  competition with 3H-1,25-dihydroxyvitamin D3 for the receptor site / recognition by the cytosol receptor site: able to compete
[2]; FIG. 3, listed as 1-beta-thio-hydrovitamin D3
  competition with 3H-1,25-dihydroxyvitamin D3 for the receptor site / recognition by the cytosol receptor site: recognized by the cytosol receptor site
Human fibroblasts; human fibroblasts, FIG. 4
  effect on the inhibitory effect of 1-alpha,25-dihydroxyvitamin D3 on cell generation: blocked the inhibitory effect
Human fibroblasts; human fibroblasts, FIG. 4, listed as 1-beta-thio-hydrovitamin D3
  effect on the inhibitory effect of 1-alpha,25-dihydroxyvitamin D3 on cell generation: blocks the ability of the 1,25-dihydroxy compound from affecting in vitro fibroblast cell division
Human fibroblasts; compound alone (data not shown)
  effect on cell generation time: no effect

## C=C1/C(=C\C=C2/CCC[C@]3(C)[C@@H]([C@H](C)CCCC(C)C)CC[C@@H]23)C[C@@H](O)CC1F (some centres unmarked) [1-fluoro vitamin D3]
[1]
  biological activity: possess biological activity
